≈ marks a conversion by molar mass, not a printed value.
Legend:
[1] = system: Colinus virginianus
[2] = system: Tagia sp.
[3] = system: Anas platyrhynchos; details: oral, mortality
[4] = system: Daphnia magna; details: chronic/long-term; duration: 21 days; reproduction
[5] = system: Rattus norvegicus
[6] = system: Oncorhynchus mykiss
[7] = system: Apis mellifera; details: acute; duration: 48 hours; oral; unspecified; mortality

## COC(=O)c1cccc(C)c1S(=O)(=O)NC(=O)Nc1nc(OCC(F)(F)F)nc(N(C)C)n1 [Triflusulfuron-methyl]
[1]; acute, oral, mortality
  LD50: > 2250 mg/kg-day
[1]; reproduction developmental
  NOEC: 27.6 mg/kg-day
[2]; acute, duration: 14 days, mortality
  LC50: 1000 mg/kg
[2]; chronic/long-term, duration: 56 days
  NOEC: 250 mg/kg
[3]; acute, unspecified
  LD50: > 2250 mg/kg-day
[3]; short-term, feed
  LC50: > 1540 mg/kg-day
[4]
  NOEC: 11 mg/L
[5]; acute, oral, mortality
  LD50: > 5000 mg/kg-day
[5]; chronic, duration: 2 years, oral, diet, body weight
  NOAEL: 4.06 mg/kg-day
[5]; developmental, development
  NOAEL: 120 mg/kg-day
[5]; reproduction developmental, body weight
  NOAEL: 5.8 mg/kg-day
[5]; subchronic, duration: 90 days, oral, body weight
  NOAEL: 6.6 mg/kg-day
[6]; acute, duration: 96 hours, mortality
  LC50: 730 µg/mL (≈ 1480 µM)
[6]; chronic/long-term, duration: 97 days, growth
  NOEC: 57.7 mg/L
[7]
  LD50: > 100 µg/piece
